Measured values taken from ChEMBL document CHEMBL1139108, “New thiopyrazolo[3,4-d]pyrimidine derivatives as anti-mycobacterial agents” (Bioorg Med Chem Lett, 2007).
Converted amounts (≈) assume the structure as drawn.

tested on: Mycobacterium tuberculosis; test: Antimycobacterial activity against Mycobacterium tuberculosis H37Rv; type: functional; details: not given

SMILES	MIC [µg/mL]
C=CCn1ncc2c(SCc3ccncc3)ncnc21	125 (≈ 441 µM)
C=CCn1ncc2c(SCc3cccnc3)ncnc21	250 (≈ 882 µM)
N#CCSc1ncnc2c1cnn2Cc1ccc(Cl)cc1	125 (≈ 396 µM)
OCCSc1ncnc2c1cnn2Cc1ccccc1	63 (≈ 220 µM)
OCCn1ncc2c(SCc3ccccc3)ncnc21	125 (≈ 437 µM)
Clc1ccc(CSc2ncnc3[nH]ncc23)cc1	250 (≈ 903 µM)
C#CCSc1ncnc2c1cnn2CC=C	63 (≈ 274 µM)
Clc1ccccc1CSc1ncnc2[nH]ncc12	250 (≈ 903 µM)
C=CCn1ncc2c(SCc3ccccc3Cl)ncnc21	32 (≈ 101 µM)
Clc1ccccc1CSc1ncnc2c1cnn2Cc1ccccc1	250 (≈ 681 µM)
C=CCSc1ncnc2c1cnn2Cc1ccc(Cl)cc1	16 (≈ 50.5 µM)
c1nc(SCC2CC2)c2cn[nH]c2n1	125 (≈ 606 µM)
N#CCSc1ncnc2[nH]ncc12	63 (≈ 329 µM)
c1ccc(CSc2ncnc3c2cnn3Cc2ccccc2)cc1	16 (≈ 48.1 µM)
CCCn1ncc2c(SCc3ccccc3)ncnc21	32 (≈ 113 µM)
Clc1ccccc1Cn1ncc2c(SCc3ccccc3)ncnc21	16 (≈ 43.6 µM)
c1ccc(Cn2ncc3c(SCc4ccncc4)ncnc32)cc1	32 (≈ 96 µM)
C=CCCSc1ncnc2c1cnn2Cc1ccccc1	16 (≈ 54 µM)
N#CCSc1ncnc2c1cnn2CC#N	8 (≈ 34.7 µM)
C=CCCSc1ncnc2c1cnn2CC#N	63 (≈ 257 µM)
N#CCSc1ncnc2c1cnn2Cc1cccnc1	63 (≈ 223 µM)
C=CCSc1ncnc2c1cnn2CC=C	125 (≈ 538 µM)
N#CCn1ncc2c(SCc3ccccc3)ncnc21	32 (≈ 114 µM)

SMILES	MIC [µg/mL]
C#CCSc1ncnc2c1cnn2CC#C	63 (≈ 276 µM)
C=CCn1ncc2c(SCC3CC3)ncnc21	125 (≈ 507 µM)
c1ccc(Cn2ncc3c(SCC4CC4)ncnc32)cc1	16 (≈ 54 µM)
C=CCCSc1ncnc2[nH]ncc12	125 (≈ 606 µM)
C=CCSc1ncnc2c1cnn2Cc1ccccc1	32 (≈ 113 µM)
c1ccc(CSc2ncnc3[nH]ncc23)cc1	250 (≈ 1030 µM)
Clc1ccc(CSc2ncnc3c2cnn3Cc2ccccc2)cc1	32 (≈ 87.2 µM)
C=CCSc1ncnc2c1cnn2CCO	250 (≈ 1060 µM)
c1ccc(CSc2ncnc3c2cnn3Cc2ccncc2)cc1	16 (≈ 48 µM)
C=CCSc1ncnc2c1cnn2CC1CC1	32 (≈ 130 µM)
C=CCSc1ncnc2c1cnn2CC#N	16 (≈ 69.2 µM)
C=CCSc1ncnc2c1cnn2Cc1ccncc1	63 (≈ 222 µM)
c1cncc(CSc2ncnc3[nH]ncc23)c1	250 (≈ 1030 µM)
C=CCn1ncc2c(SCC#N)ncnc21	32 (≈ 138 µM)
N#CCSc1ncnc2c1cnn2Cc1ccccc1	32 (≈ 114 µM)
Clc1ccc(CSc2ncnc3c2cnn3Cc2ccc(Cl)cc2)cc1	63 (≈ 157 µM)
Clc1ccc(CSc2ncnc3c2cnn3Cc2cccnc2)cc1	0.5 (≈ 1.36 µM)
CCCSc1ncnc2[nH]ncc12	125 (≈ 643 µM)
CCCSc1ncnc2c1cnn2Cc1ccccc1	16 (≈ 56.3 µM)
C=CCn1ncc2c(SCCO)ncnc21	250 (≈ 1060 µM)
C=CCSc1ncnc2c1cnn2Cc1cccnc1	63 (≈ 222 µM)
C#CCSc1ncnc2c1cnn2Cc1ccccc1	63 (≈ 225 µM)
C=CCCn1ncc2c(SCc3ccccc3)ncnc21	16 (≈ 54 µM)

SMILES	MIC [µg/mL]
C#CCn1ncc2c(SCc3ccccc3)ncnc21	32 (≈ 114 µM)
N#CCn1ncc2c(SCc3ccc(Cl)cc3)ncnc21	8 (≈ 25.3 µM)
C=CCCSc1ncnc2c1cnn2Cc1ccc(Cl)cc1	125 (≈ 378 µM)
C=CCn1ncc2c(SCCC)ncnc21	63 (≈ 269 µM)
OCCSc1ncnc2[nH]ncc12	250 (≈ 1270 µM)
c1ccc(Cn2ncc3c(SCc4cccnc4)ncnc32)cc1	32 (≈ 96 µM)
C=CCCn1ncc2c(SCC=C)ncnc21	63 (≈ 256 µM)
C=CCSc1ncnc2c1cnn2Cc1ccccc1Cl	63 (≈ 199 µM)
c1cc(CSc2ncnc3[nH]ncc23)ccn1	250 (≈ 1030 µM)
Clc1ccc(Cn2ncc3c(SCc4ccccc4)ncnc32)cc1	16 (≈ 43.6 µM)
C=CCCSc1ncnc2c1cnn2CC=C	32 (≈ 130 µM)
C=CCSc1ncnc2c1cnn2CCC	125 (≈ 533 µM)
C=CCCSc1ncnc2c1cnn2Cc1cccnc1	32 (≈ 108 µM)
C=CCSc1ncnc2[nH]ncc12	250 (≈ 1300 µM)
c1ccc(CSc2ncnc3c2cnn3Cc2cccnc2)cc1	8 (≈ 24 µM)
c1ccc(CSc2ncnc3c2cnn3CC2CC2)cc1	250 (≈ 843 µM)
C=CCn1ncc2c(SCc3ccc(Cl)cc3)ncnc21	8 (≈ 25.3 µM)
C#CCn1ncc2c(SCC=C)ncnc21	32 (≈ 139 µM)
C=CCn1ncc2c(SCc3ccccc3)ncnc21	32 (≈ 113 µM)
CC[C@@H](CO)NCCN[C@@H](CC)CO [ETHAMBUTOL]	2.5 (≈ 12.2 µM)
NNC(=O)c1ccncc1 [ISONIAZID]	0.25 (≈ 1.82 µM)
CO[C@H]1/C=C/O[C@@]2(C)Oc3c(C)c(O)c4c(O)c(c(/C=N/N5CCN(C)CC5)c(O)c4c3C2=O)NC(=O)/C(C)=C\C=C\[C@H](C)[C@H](O)[C@@H](C)[C@@H](O)[C@@H](C)[C@H](OC(C)=O)[C@@H]1C [RIFAMPIN]	0.016 (≈ 0.0194 µM)

tested on: not listed separately; test: Cytotoxicity against human HepG2 cells; type: cell-based; details: read-out: TD50 (the source's name)

SMILES	CC50 [µg/mL]
C=CCn1ncc2c(SCC#N)ncnc21	4 (≈ 17.3 µM)
Clc1ccc(CSc2ncnc3c2cnn3Cc2cccnc2)cc1	> 40
N#CCn1ncc2c(SCc3ccc(Cl)cc3)ncnc21	2 (≈ 6.33 µM)
c1ccc(CSc2ncnc3c2cnn3Cc2cccnc2)cc1	> 40
C=CCn1ncc2c(SCc3ccc(Cl)cc3)ncnc21	> 20
